Experimental data reported in article doi:10.1101/2022.09.20.508773v1 (biorxiv, 2022).

Biological target: T1, NΔ47-TPH2-R (Homo sapiens, UniProt Q8IWU9)
T1 sequence (Q8IWU9 48-145): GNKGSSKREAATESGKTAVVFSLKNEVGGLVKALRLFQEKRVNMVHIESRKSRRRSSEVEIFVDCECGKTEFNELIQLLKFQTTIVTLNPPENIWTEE
Experiment: protein-observed NMR titration, 1H-15N HSQC, 2D line-shape analysis
Format: binding

Kd: 40.8 ± 0.8 µM
SMILES: N[C@@H](Cc1ccccc1)C(=O)O [L-Phe]
